Data from patent US20160158200A1, “Combinations of Hepatitis C Virus Inhibitors” (priority 2013, published 2016).

System: HCV genotype-1a variant with glutamine 30 changed to glutamate in the NS5A protein
Assay type: cell-based
Conditions: test compound titrated with BMS-790052 fixed at 200 nM; genotype 1a Q30E replicon
In short: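 Synergy was assessed by combining several fixed amounts of an NS5A-targeting compound with a titration of the second compound of interest.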

Structure (SMILES)	Fold-Synergistic 1a (Q30E)
CC(C)[C@H](NC(=O)[C@@H](C)c1ccccc1)c1ncc(-c2ccc(-c3ccc(-c4cnc([C@@H](NC(=O)[C@@H](C)c5ccccc5)C(C)C)[nH]4)cc3)cc2)[nH]1 [Compound P-62]	>100 fold
CC(C)[C@H](NC(=O)c1ccccc1F)c1ncc(-c2ccc(-c3ccc(-c4cnc([C@@H](NC(=O)c5ccccc5F)C(C)C)[nH]4)cc3)cc2)[nH]1 [Compound P-63]	>100 fold
CC(C)[C@H](NC(=O)[C@H](C)c1ccccc1)c1ncc(-c2ccc(-c3ccc(-c4cnc([C@@H](NC(=O)[C@H](C)c5ccccc5)C(C)C)[nH]4)cc3)cc2)[nH]1 [Compound P-64]	>100 fold
CC(C)[C@H](NC(=O)C(C)(C)Oc1ccc(Cl)cc1)c1ncc(-c2ccc(-c3ccc(-c4cnc([C@@H](NC(=O)C(C)(C)Oc5ccc(Cl)cc5)C(C)C)[nH]4)cc3)cc2)[nH]1 [Compound P-65]	>100 fold
CC(C)[C@H](NC(=O)[C@@H]1CCCO1)c1ncc(-c2ccc(-c3ccc(-c4cnc([C@@H](NC(=O)[C@@H]5CCCO5)C(C)C)[nH]4)cc3)cc2)[nH]1 [Compound P-66]	>100 fold
CC(C)[C@H](NC(=O)C(C)(C)CO)c1ncc(-c2ccc(-c3ccc(-c4cnc([C@@H](NC(=O)C(C)(C)CO)C(C)C)[nH]4)cc3)cc2)[nH]1 [Compound P-67]	>100 fold
CCC(C)(C)C(=O)N[C@H](c1ncc(-c2ccc(-c3ccc(-c4cnc([C@@H](NC(=O)C(C)(C)CC)C(C)C)[nH]4)cc3)cc2)[nH]1)C(C)C [Compound P-68]	>100 fold
COC(C)(C)C(=O)N[C@H](c1ncc(-c2ccc(-c3ccc(-c4cnc([C@@H](NC(=O)C(C)(C)OC)C(C)C)[nH]4)cc3)cc2)[nH]1)C(C)C [Compound P-69]	>100 fold
COCC(C)(C)C(=O)N[C@H](c1ncc(-c2ccc(-c3ccc(-c4cnc([C@@H](NC(=O)C(C)(C)COC)C(C)C)[nH]4)cc3)cc2)[nH]1)C(C)C [Compound P-70]	>100 fold
CC(C)[C@H](NC(=O)C(C)(C)O)c1ncc(-c2ccc(-c3ccc(-c4cnc([C@@H](NC(=O)C(C)(C)O)C(C)C)[nH]4)cc3)cc2)[nH]1 [Compound P-71]	>100 fold
CC(C)[C@H](NC(=O)C(C)(C)CF)c1ncc(-c2ccc(-c3ccc(-c4cnc([C@@H](NC(=O)C(C)(C)CF)C(C)C)[nH]4)cc3)cc2)[nH]1 [Compound P-72]	>100 fold
CC(C)[C@H](NC(=O)C1(CF)CC1)c1ncc(-c2ccc(-c3ccc(-c4cnc([C@@H](NC(=O)C5(CF)CC5)C(C)C)[nH]4)cc3)cc2)[nH]1 [Compound P-73]	>100 fold
COCC1(C(=O)N[C@H](c2ncc(-c3ccc(-c4ccc(-c5cnc([C@@H](NC(=O)C6(COC)CCC6)C(C)C)[nH]5)cc4)cc3)[nH]2)C(C)C)CCC1 [Compound P-74]	>100 fold
CO[C@@H](C(=O)N[C@H](c1ncc(-c2ccc(-c3ccc(-c4cnc([C@@H](NC(=O)[C@H](OC)c5ccccc5)C(C)C)[nH]4)cc3)cc2)[nH]1)C(C)C)c1ccccc1 [Compound P-75]	>100 fold
Cc1cc(CC(=O)N[C@H](c2ncc(-c3ccc(-c4ccc(-c5cnc([C@@H](NC(=O)Cc6cc(C)no6)C(C)C)[nH]5)cc4)cc3)[nH]2)C(C)C)on1 [Compound P-76]	>10 fold
CC(C)[C@H](NC(=O)Cc1noc2ccccc12)c1ncc(-c2ccc(-c3ccc(-c4cnc([C@@H](NC(=O)Cc5noc6ccccc56)C(C)C)[nH]4)cc3)cc2)[nH]1 [Compound P-77]	>100 fold
CC(C)[C@H](NC(=O)Cc1cccs1)c1ncc(-c2ccc(-c3ccc(-c4cnc([C@@H](NC(=O)Cc5cccs5)C(C)C)[nH]4)cc3)cc2)[nH]1 [Compound P-78]	>100 fold
CC(C)[C@H](NC(=O)C1CCC(F)(F)CC1)c1ncc(-c2ccc(-c3ccc(-c4cnc([C@@H](NC(=O)C5CCC(F)(F)CC5)C(C)C)[nH]4)cc3)cc2)[nH]1 [Compound P-79]	>100 fold
CC(C)[C@H](NC(=O)C1(C(F)(F)F)CCCC1)c1ncc(-c2ccc(-c3ccc(-c4cnc([C@@H](NC(=O)C5(C(F)(F)F)CCCC5)C(C)C)[nH]4)cc3)cc2)[nH]1 [Compound P-80]	>100 fold
CC(C)[C@H](NC(=O)CCC(C)(C)C)c1ncc(-c2ccc(-c3ccc(-c4cnc([C@@H](NC(=O)CCC(C)(C)C)C(C)C)[nH]4)cc3)cc2)[nH]1 [Compound P-81]	>100 fold
CC(C)[C@H](NC(=O)C1(c2ccc(F)cc2)CCC1)c1ncc(-c2ccc(-c3ccc(-c4cnc([C@@H](NC(=O)C5(c6ccc(F)cc6)CCC5)C(C)C)[nH]4)cc3)cc2)[nH]1 [Compound P-82]	>100 fold

Structure (SMILES)	Fold-Synergistic 1a (Q30E)
CC(C)[C@H](NC(=O)C1CC(F)(F)C1)c1ncc(-c2ccc(-c3ccc(-c4cnc([C@@H](NC(=O)C5CC(F)(F)C5)C(C)C)[nH]4)cc3)cc2)[nH]1 [Compound P-83]	>100 fold
CC(C)[C@H](NC(=O)C1(C)COC1)c1ncc(-c2ccc(-c3ccc(-c4cnc([C@@H](NC(=O)C5(C)COC5)C(C)C)[nH]4)cc3)cc2)[nH]1 [Compound P-84]	>100 fold
CO[C@H](C(=O)N[C@H](c1ncc(-c2ccc(-c3ccc(-c4cnc([C@@H](NC(=O)[C@@H](OC)c5ccccc5)C(C)C)[nH]4)cc3)cc2)[nH]1)C(C)C)c1ccccc1 [Compound P-85]	>100 fold
CC(C)[C@H](NC(=O)C(C)(C)C(F)(F)F)c1ncc(-c2ccc(-c3ccc(-c4cnc([C@@H](NC(=O)C(C)(C)C(F)(F)F)C(C)C)[nH]4)cc3)cc2)[nH]1 [Compound P-87]	>100 fold
CC(C)[C@H](NC(=O)C1(C(F)(F)F)CC1)c1ncc(-c2ccc(-c3ccc(-c4cnc([C@@H](NC(=O)C5(C(F)(F)F)CC5)C(C)C)[nH]4)cc3)cc2)[nH]1 [Compound P-88]	>100 fold
CC(C)[C@H](NC(=O)c1cc(Cl)cs1)c1ncc(-c2ccc(-c3ccc(-c4cnc([C@@H](NC(=O)c5cc(Cl)cs5)C(C)C)[nH]4)cc3)cc2)[nH]1 [Compound P-90]	>100 fold
CC(C)[C@H](NC(=O)c1ccc(Cl)s1)c1ncc(-c2ccc(-c3ccc(-c4cnc([C@@H](NC(=O)c5ccc(Cl)s5)C(C)C)[nH]4)cc3)cc2)[nH]1 [Compound P-91]	>100 fold
CC(C)[C@H](NC(=O)c1cocn1)c1ncc(-c2ccc(-c3ccc(-c4cnc([C@@H](NC(=O)c5cocn5)C(C)C)[nH]4)cc3)cc2)[nH]1 [Compound P-92]	>10 fold
Cc1ncoc1C(=O)N[C@H](c1ncc(-c2ccc(-c3ccc(-c4cnc([C@@H](NC(=O)c5ocnc5C)C(C)C)[nH]4)cc3)cc2)[nH]1)C(C)C [Compound P-93]	>100 fold
CC(C)[C@H](NC(=O)c1cnco1)c1ncc(-c2ccc(-c3ccc(-c4cnc([C@@H](NC(=O)c5cnco5)C(C)C)[nH]4)cc3)cc2)[nH]1 [Compound P-94]	>10 fold
CC(C)[C@H](NC(=O)Cc1ncccn1)c1ncc(-c2ccc(-c3ccc(-c4cnc([C@@H](NC(=O)Cc5ncccn5)C(C)C)[nH]4)cc3)cc2)[nH]1 [Compound P-95]	>10 fold
CC(C)[C@H](NC(=O)c1nn(C)c2ccccc12)c1ncc(-c2ccc(-c3ccc(-c4cnc([C@@H](NC(=O)c5nn(C)c6ccccc56)C(C)C)[nH]4)cc3)cc2)[nH]1 [Compound P-96]	>100 fold
CC(C)[C@H](NC(=O)C(F)(F)c1ccccc1)c1ncc(-c2ccc(-c3ccc(-c4cnc([C@@H](NC(=O)C(F)(F)c5ccccc5)C(C)C)[nH]4)cc3)cc2)[nH]1 [Compound P-97]	>100 fold
CC(C)[C@H](NC(=O)c1cc2ccccc2s1)c1ncc(-c2ccc(-c3ccc(-c4cnc([C@@H](NC(=O)c5cc6ccccc6s5)C(C)C)[nH]4)cc3)cc2)[nH]1 [Compound P-98]	>100 fold
CC(C)[C@H](NC(=O)C(C)(C)F)c1ncc(-c2ccc(-c3ccc(-c4cnc([C@@H](NC(=O)C(C)(C)F)C(C)C)[nH]4)cc3)cc2)[nH]1 [Compound P-99]	>100 fold
CC(C)[C@H](NC(=O)c1coc2ccccc12)c1ncc(-c2ccc(-c3ccc(-c4cnc([C@@H](NC(=O)c5coc6ccccc56)C(C)C)[nH]4)cc3)cc2)[nH]1 [Compound P-100]	>100 fold
CC(C)[C@H](NC(=O)c1ccc(C#N)s1)c1ncc(-c2ccc(-c3ccc(-c4cnc([C@@H](NC(=O)c5ccc(C#N)s5)C(C)C)[nH]4)cc3)cc2)[nH]1 [Compound P-101]	>100 fold
COC(=O)N[C@@H](C(=O)N[C@H](c1ncc(-c2ccc(-c3ccc(-c4cnc([C@@H](NC(=O)[C@H](NC(=O)OC)C5CC5)C(C)C)[nH]4)cc3)cc2)[nH]1)C(C)C)C1CC1 [Compound P-102]	>10 fold
COC(=O)N[C@@H](C(=O)N[C@H](c1ncc(-c2ccc(-c3ccc(-c4cnc([C@@H](NC(=O)[C@H](NC(=O)OC)c5ccccc5)C(C)C)[nH]4)cc3)cc2)[nH]1)C(C)C)c1ccccc1 [Compound P-103]	>100 fold
CC[C@@H](NC(=O)OC)C(=O)N[C@H](c1ncc(-c2ccc(-c3ccc(-c4cnc([C@@H](NC(=O)[C@@H](CC)NC(=O)OC)C(C)C)[nH]4)cc3)cc2)[nH]1)C(C)C [Compound P-104]	>100 fold
